Experimental data from ChEMBL document CHEMBL5335855, “Structure-Activity Relationships of Natural C-9-Methyl-Substituted 10-Membered Lactones and Their Semisynthetic Derivatives” (J Nat Prod, 2024).
Converted amounts (≈) assume the structure as drawn. “And” between values parts separate entries of the source, which are not always exact repeats. Equal values may be shown once.

Assays:
[1] = Phytotoxicity in Sonchus arvensis assessed as diameter of lesions at 2 mg/ml incubated for 120 hrs by leaf puncture assay; type: toxicity
[2] = system: Aphididae; experiment: Aphicidal activity against insects at 1 mg/ml measured after 24 hrs; type: functional
[3] = Toxicity in Galleria mellonella larvae upto 420 mg/kg treated for 14 days in dark; type: organism-based; details: in vivo, 336 h, time 14 day
[4] = system: Bacillus subtilis; experiment: Antibacterial activity against Bacillus subtilis NCTC […] assessed as zone of inhibition at 100 ug per disc incubated for 24 hrs by agar diffusion assay; type: functional; details: read-out: DIZ
[5] = Cytotoxicity against Spodoptera frugiperda Sf9 cells incubated for 24 hrs by trypan blue staining based assay; type: toxicity, cell-based; details: read-out: LC50
[6] = Toxicity in Galleria mellonella larvae treated for 14 days in dark; details: 336 h, time 14 day
[7] = system: Schizaphis graminum; experiment: Aphicidal activity against Schizaphis graminum at 1 mg/ml measured after 24 hrs; type: functional
[8] = Cytotoxicity against mouse LM3 cells measured after 24 hrs by MTT assay; type: functional, cell-based; details: LM3, 24 h
[9] = Cytotoxicity against mouse LP07 cells measured after 24 hrs by MTT assay; type: functional, cell-based; details: LP07, 24 h
[10] = system: MCF7; experiment: Cytotoxicity against human MCF7 cells measured after 24 hrs by MTT assay; type: functional, cell-based; details: MCF7, 24 h
[11] = system: Paramecium caudatum; experiment: Toxicity in Paramecium caudatum; type: organism-based; details: in vivo

Compound | Activity [1] | mortality at 1000 µg/mL [2] | Activity [3] | zone of inhibition at 100 µg/disc [4] | CC50 at 24 h [5] | LC50 [6] | mortality at 1000 µg/mL [7] | IC50 [8] | IC50 [9] | IC50 [10] | Activity [11]
CC(=O)O[C@@H]1CC[C@@H](C)OC(=O)/C=C\[C@@H]2O[C@H]21 | 5.2 mm | 23% | Non-Toxic | 0 mm | > 100 µg/mL and > 420 µM | – | – | – | – | – | –
CCC[C@H]1OC(=O)CCC/C=C/C(=O)[C@@H]1O [STAGONOLIDE] | 6.4 mm | – | – | 38 mm | 3 µg/mL and 13 µM | 300 mg/kg | 15% | – | – | – | –
C[C@@H]1CC[C@@H](O)[C@H](O)CCCC(=O)O1 | 0 mm | 33% | Non-Toxic | 0 mm | – | – | – | – | – | – | –
CCC[C@H]1OC(=O)CCC/C=C/[C@H](O)[C@@H]1O [HERBARUMIN I] | 4.8 mm | – | Non-Toxic | 0 mm | – | – | 54% | – | – | – | –
C[C@@H]1CCC(=O)CCCCC(=O)O1 | 0 mm | – | Non-Toxic | 0 mm | > 100 µg/mL and > 540 µM | – | – | – | – | – | –
C[C@@H]1CC[C@@H](O)CCCCC(=O)O1 | 0 mm | 0% | Non-Toxic | 0 mm | > 100 µg/mL and > 540 µM | – | – | – | – | – | –
C[C@@H]1CC[C@@H](O)/C=C/C=C\C(=O)O1 [STAGONOLIDE E] | 1.7 mm | 67% | Non-Toxic | 0 mm | – | – | – | – | – | – | –
CC(=O)O[C@H]1/C=C/C=C\C(=O)O[C@H](C)CC1 | 0 mm | 55% | – | 0 mm | – | 160 mg/kg | – | – | – | – | –
C[C@H]1OC(=O)CCC(=O)C[C@H](O)[C@H]2O[C@H]21 | 1.1 mm | 13% | Non-Toxic | 0 mm | – | – | – | – | – | – | –
C[C@H]1OC(=O)CC[C@H](O)/C=C/[C@H]2O[C@@H]12 | 0 mm | 0% | Non-Toxic | 0 mm | – | – | – | – | – | – | –
C[C@@H]1C[C@H](O)/C=C/[C@@H](O)/C=C\C(=O)O1 [MODIOLIDE A] | – | – | – | – | – | – | – | 292 µg/mL (≈ 1470 µM) | > 125 µg/mL | 61 µg/mL (≈ 308 µM) | –
C[C@@H]1C[C@H](O)/C=C/C(=O)/C=C\C(=O)O1 | 4.3 mm | 10% | Non-Toxic | 45 mm | < 1 µg/mL and < 5 µM | – | – | – | – | – | Non-Toxic
C[C@@H]1CC[C@@H](O)[C@@H]2O[C@H]2/C=C\C(=O)O1 | 5.5 mm | 8% | Non-Toxic | 0 mm | > 100 µg/mL and > 500 µM | – | – | – | – | – | –
